The source of these data is paper PMC7830900, “Cinnamoyl Sucrose Esters as Alpha Glucosidase Inhibitors for the Treatment of Diabetes” (Molecules, 2021).

One experiment deals with yeast α-glucosidase (Saccharomyces cerevisiae, UniProt P53341). Put plainly: In vitro α-glucosidase inhibition assay (PNPG substrate). It counts as biochemical. Also on record: inhibition: dose or concentration left out as unconfirmed. The conditions noted are these: for IC50: dose-response 0–25 µg/mL. The protocol: α-Glucosidase inhibition was tested according to previously reported methods with some modifications. […] Fifty microliters of yeast α-glucosidase enzyme solution (0.5 U/mL in phosphate buffer) was added to the wells. The plate was incubated at 37 °C for 15 min. Next, 25 µL of 2.5 mM PNPG (4-nitrophenyl α-D-glucopyranoside) substrate solution (in phosphate buffer) was added. The microplate was incubated at 37 °C for another 15 min. The absorbance was then measured using a microplate reader at 405 nm. The percentage inhibition was calculated using the formula: % inhibition = ΔAbscontrol−ΔAbssample/ΔAbscontrol × 100
Sequence of yeast α-glucosidase (P53341 whole entry): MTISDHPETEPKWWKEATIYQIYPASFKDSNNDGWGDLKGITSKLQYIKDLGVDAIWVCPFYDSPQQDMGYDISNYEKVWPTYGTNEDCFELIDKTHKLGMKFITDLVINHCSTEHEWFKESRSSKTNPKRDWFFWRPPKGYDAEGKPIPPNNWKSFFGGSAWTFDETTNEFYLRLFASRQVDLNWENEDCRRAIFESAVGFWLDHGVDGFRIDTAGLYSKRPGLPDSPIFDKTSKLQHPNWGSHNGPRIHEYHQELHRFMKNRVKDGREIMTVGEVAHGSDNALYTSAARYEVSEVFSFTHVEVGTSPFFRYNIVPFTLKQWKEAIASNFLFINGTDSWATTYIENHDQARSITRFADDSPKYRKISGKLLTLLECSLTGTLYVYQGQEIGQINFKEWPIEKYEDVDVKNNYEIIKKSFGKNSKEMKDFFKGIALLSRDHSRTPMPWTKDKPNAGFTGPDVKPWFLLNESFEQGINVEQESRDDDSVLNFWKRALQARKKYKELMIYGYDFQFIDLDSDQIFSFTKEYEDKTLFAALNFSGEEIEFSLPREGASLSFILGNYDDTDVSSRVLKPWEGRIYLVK
All measurements were performed in triplicates and the values. The IC50 values for selected CSEs were calculated by plotting a dose-response curve for a range of concentrations of the CSEs (0–25 µg/mL) for the selected CSEs (data not shown) and regression analysis was done using Graphpad Prism software using the in-built function.

For experiment [1], the target named is T1, porcine pancreatic α-amylase (Sus scrofa, UniProt P00690).
T1 sequence (P00690 16-511): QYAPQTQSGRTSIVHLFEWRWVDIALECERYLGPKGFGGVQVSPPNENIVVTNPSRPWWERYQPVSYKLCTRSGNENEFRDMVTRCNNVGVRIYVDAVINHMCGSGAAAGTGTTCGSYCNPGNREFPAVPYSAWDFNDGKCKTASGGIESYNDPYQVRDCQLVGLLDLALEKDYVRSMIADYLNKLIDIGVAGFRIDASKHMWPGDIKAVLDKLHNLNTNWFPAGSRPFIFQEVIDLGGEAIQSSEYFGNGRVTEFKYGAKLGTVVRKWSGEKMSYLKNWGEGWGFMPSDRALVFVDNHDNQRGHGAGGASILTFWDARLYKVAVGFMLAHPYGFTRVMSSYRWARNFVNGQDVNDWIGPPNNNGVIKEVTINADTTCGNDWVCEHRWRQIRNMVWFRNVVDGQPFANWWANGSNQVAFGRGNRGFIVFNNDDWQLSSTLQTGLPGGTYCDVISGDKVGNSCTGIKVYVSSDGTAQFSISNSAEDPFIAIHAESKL
In words: In vitro α-amylase inhibition assay (starch/DNSA). The conditions noted are these: for IC50: dose-response 0–25 µg/mL. It counts as biochemical. Also on record: inhibition: dose or concentration left out as unconfirmed. On the procedure: α-amylase inhibition was tested using previously reported methods […] The tubes were then incubated at 37 °C for 10 min. Next, 450 µL of 0.5% starch solution was added and the tubes were incubated for a further 20 min at 37 °C. Finally, 500 µL of Dinitro Salicylic Acid (DNSA) reagent was added and the tubes were placed in a boiling water bath for 15 min. The absorbance of the tubes was recorded at 540 nm and the % inhibition calculated using the same formula as for α-glucosidase, % inhibition = ΔAbscontrol−ΔAbssample/ΔAbscontrol × 100
All measurements were performed in triplicates and the values.

In a further experiment the test system is STZ-treated mice. More on the design: method as in earlier work. The conditions noted are these: STZ-treated mice compared to control (starch only) mice; cited from earlier work.
The mark [2] stands for this setting: 25 μg/mL, mean ± SD, n = 3, less than 5% inhibition = No Significant Activity.

By inhibition is commonly meant the share of the control response that was lost under treatment. As to `O=C(/C=C/c1ccccc1)OC[C@H]1O[C@@](CO)(O[C@H]2O[C@H](CO)[C@@H](O)[C@H](O)[C@H]2O)[C@@H](OC(=O)/C=C/c2ccccc2)[C@@H]1OC(=O)/C=C/c1ccccc1` [CSE 8], the inhibition against yeast α-glucosidase came out at 34 ± 4%; in experiment [1] it was 16 ± 2%. Moreover, at yeast α-glucosidase (25 μg/mL, selectivity α-glucosidase over α-amylase), the “% α-glucosidase inhibition relative to % α-amylase inhibition” value is “higher inhibition of α-glucosidase than α-amylase”.

Consider `CC(=O)O[C@@H]1[C@H]2OC(C)(C)OC[C@@]3(O[C@H]2O[C@@H]2COC(C)(C)O[C@@H]12)O[C@H](COC(=O)/C=C/c1ccccc1)[C@@H](OC(=O)/C=C/c1ccccc1)[C@@H]3OC(=O)/C=C/c1ccccc1` [CSE 7], for which the inhibition was 46 ± 2% against yeast α-glucosidase and 13 ± 7% in experiment [1].

For the molecule `CC1(C)OC[C@@]2(O[C@H]3O[C@@H]4COC(C)(C)O[C@H]4[C@H](O)[C@H]3O1)O[C@H](COC(=O)/C=C/c1ccccc1)[C@@H](O)[C@@H]2O` [CSE 2], the “% α-glucosidase inhibition” value on yeast α-glucosidase (setting [2]) is “did not show significant inhibition activity”. Moreover, the “% α-amylase inhibition” value in experiment [1] (setting [2]) is “did not show significant inhibition activity”.

In general, IC50 refers to the concentration that gives 50% inhibition. Consider `O=C(C=Cc1ccccc1)OCC1OC(CO)(OC2OC(CO)C(O)C(OC(=O)C=Cc3ccccc3)C2O)C(OC(=O)C=Cc2ccccc2)C1OC(=O)C=Cc1ccccc1` (stereo not shown) [CSE 9], for which, on yeast α-glucosidase, the inhibition came to 74 ± 9% and the “α-glucosidase IC50, fold lower than acarbose” value is “over 36 fold”. For the same molecule, 9 ± 3 µM corresponded to half-maximal inhibition on yeast α-glucosidase (mean ± SD, n = 3) (IC50). Further, in experiment [1], the inhibition was 99 ± 1% and the “α-amylase IC50, fold less than acarbose” value was “five-fold less”. The molecule further registered an IC50 in experiment [1] (mean ± SD, n = 3) of 800 ± 100 nM.

For `CC(=O)O[C@@H]1[C@H]2OC(C)(C)OC[C@@]3(O[C@H]2O[C@@H]2COC(C)(C)O[C@@H]12)O[C@H](COC(=O)/C=C/c1ccccc1)[C@@H](OC(C)=O)[C@@H]3OC(=O)/C=C/c1ccccc1` [CSE 6], the values for the inhibition (against yeast α-glucosidase; in experiment [1]) were 46 ± 3% and 14 ± 4%, respectively.

As for `CC1(C)OC[C@@]2(O[C@H]3O[C@@H]4COC(C)(C)O[C@H]4[C@H](O)[C@H]3O1)O[C@H](COC(=O)/C=C/c1ccccc1)[C@@H](O)[C@@H]2OC(=O)/C=C/c1ccccc1` [CSE 3], the inhibition turned out to be 35 ± 5% at yeast α-glucosidase and 9 ± 5% in experiment [1].

For the molecule `CC1(C)OCC2OC3OC4(COC(C)(C)OC3C(OC(=O)C=Cc3ccccc3)C2O1)OC(COC(=O)C=Cc1ccccc1)C(OC(=O)C=Cc1ccccc1)C4OC(=O)C=Cc1ccccc1` (stereo not shown) [CSE 5], on yeast α-glucosidase, the inhibition was found to be 77 ± 5% and the “α-glucosidase IC50, fold lower than acarbose” value is “over 36 fold”. For the same molecule, it took 9 ± 3 µM to reach half-maximal inhibition against yeast α-glucosidase (mean ± SD, n = 3) (IC50). Also, in experiment [1], the inhibition is 98 ± 2% and the “α-amylase IC50, fold less than acarbose” value is “five-fold less”. The molecule also had an IC50 in experiment [1] (mean ± SD, n = 3) of 1000 ± 200 nM.

As for `COc1cc(/C=C/C(=O)OC[C@H]2O[C@@](CO)(O[C@H]3O[C@H](CO)[C@@H](O)[C@H](OC(=O)/C=C/c4ccc(O)c(OC)c4)[C@H]3O)[C@@H](OC(=O)/C=C/c3ccc(O)c(OC)c3)[C@@H]2OC(=O)/C=C/c2ccc(O)c(OC)c2)ccc1O` [FSE 1], the blood glucose excursion entry in the experiment on STZ-treated mice was “significantly reduced blood glucose excursion”.

As for `C[C@H]1O[C@H](O[C@H]2[C@H](O)[C@@H](O)[C@@H](O[C@H]3[C@H](O)[C@@H](O)C(O)O[C@@H]3CO)O[C@@H]2CO)[C@H](O)[C@@H](O)[C@@H]1N[C@H]1C=C(CO)[C@@H](O)[C@H](O)[C@H]1O` (stereo partly shown) [acarbose, reference compound], the inhibition against yeast α-glucosidase turned out to be 27 ± 4%. In addition, the inhibition at 25 µg/mL in experiment [1] (read-out: % α-amylase inhibition) was 93 ± 2%.

Consider `CC1(C)OC[C@@]2(O[C@H]3O[C@@H]4COC(C)(C)O[C@H]4[C@H](O)[C@H]3O1)O[C@H](COC(=O)/C=C/c1ccccc1)[C@@H](OC(=O)/C=C/c1ccccc1)[C@@H]2OC(=O)/C=C/c1ccccc1` [CSE 4], for which the inhibition against yeast α-glucosidase amounted to 32 ± 3%; in experiment [1] it was 8 ± 4%.
